Holding throughout (format): cell-based
For assay [1], the target named is T1, human TASK-1 (Homo sapiens (Human), UniProt O14649). Put plainly: Two-electrode voltage clamp analysis of human TASK-1 channel in Xenopus laevis oocytes. As to conditions: human TASK-1 expressed in Xenopus laevis oocytes, room temperature. As to the method: (§1) B-1. In Vitro Electrophysiological Analysis of the Human TASK-1 and TASK-3 Channels Via Two-Electrode Voltage Clamp Technique in Xenopus laevis Oocytes
(§2) Xenopus laevis oocytes were selected as described elsewhere by way of illustration [Decher et al., FEBS Lett. 492, 84-89 (2001)]. Subsequently, the oocytes were injected with 0.5-5 ng of a cRNA solution coding for TASK-1 or TASK-3. For the electrophysiological analysis of the channel proteins expressed in the oocytes, the two-electrode voltage clamp technique [Stühmer, Methods Enzymol. 207, 319-339 (1992)] was used. The measurements were conducted as described [Decher et al., FEBS Lett. 492, 84-89 (2001)] at room temperature (21-22° C.) using a Turbo TEC 10CD amplifier (NPI), recorded at 2 kHz and filtered with 0.4 kHz. Substance administration was performed using a gravitation-driven perfusion system. Here, the oocyte is located in a measuring chamber and exposed to the solution stream of 10 ml/min. The level in the measuring chamber is monitored and regulated by sucking off the solution using a peristaltic pump.
(In general: In two-electrode clamp one electrode senses voltage and the other passes current.)

The target of assay [2] is T2, human TASK-3 (Homo sapiens (Human), UniProt Q9NPC2). Put plainly: Two-electrode voltage clamp analysis of human TASK-3 channel in Xenopus laevis oocytes. As to conditions: human TASK-3 expressed in Xenopus laevis oocytes, room temperature. As to the method: as §1, §2
T2 sequence (Q9NPC2 whole entry): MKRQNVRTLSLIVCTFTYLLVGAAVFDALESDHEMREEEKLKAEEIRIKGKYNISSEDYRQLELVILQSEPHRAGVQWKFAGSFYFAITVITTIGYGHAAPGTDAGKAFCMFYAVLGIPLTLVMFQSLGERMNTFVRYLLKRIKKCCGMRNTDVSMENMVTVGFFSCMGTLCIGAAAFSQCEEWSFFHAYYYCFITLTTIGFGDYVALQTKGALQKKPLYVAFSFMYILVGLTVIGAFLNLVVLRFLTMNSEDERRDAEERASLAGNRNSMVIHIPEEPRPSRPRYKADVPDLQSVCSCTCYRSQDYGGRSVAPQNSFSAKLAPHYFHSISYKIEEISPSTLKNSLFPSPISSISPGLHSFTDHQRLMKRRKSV
Assay [3] has as its target T1, human TASK-1. The assay can be described thus: Inhibition of recombinant TASK-1 in stably transfected CHO cells (voltage-sensitive dye, KCl depolarization). Conditions: depolarization by 40 mM potassium chloride. The procedure, abridged: (§3)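 Stably transfected CHO cells loaded with a voltage-sensitive membrane-potential dye were depolarized with 40 mM KCl in the presence of compound. IC50 is the concentration blocking half of the KCl-induced depolarization.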

Assay [4] addresses T2, human TASK-3. The assay can be described thus: Inhibition of recombinant TASK-3 in stably transfected CHO cells (voltage-sensitive dye, KCl depolarization). As to conditions: depolarization by 40 mM potassium chloride. In short, it runs like this: as §3

T1 sequence (O14649 whole entry): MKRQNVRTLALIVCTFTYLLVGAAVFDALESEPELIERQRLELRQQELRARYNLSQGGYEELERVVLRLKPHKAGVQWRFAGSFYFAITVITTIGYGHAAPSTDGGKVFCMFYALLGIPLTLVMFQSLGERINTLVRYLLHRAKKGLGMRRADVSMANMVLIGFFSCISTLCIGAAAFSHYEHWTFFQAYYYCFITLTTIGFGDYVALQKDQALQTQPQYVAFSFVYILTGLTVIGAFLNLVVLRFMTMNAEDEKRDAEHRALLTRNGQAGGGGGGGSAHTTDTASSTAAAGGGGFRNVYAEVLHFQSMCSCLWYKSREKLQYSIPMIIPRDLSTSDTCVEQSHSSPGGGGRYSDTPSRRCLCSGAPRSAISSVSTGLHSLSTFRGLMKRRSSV

By IC50 is commonly meant the concentration that gives 50% inhibition. For `COc1ccc(Cl)c(C(=O)N2CC3CCC2CN3Cc2c(-c3ccc(C(C)C)cc3)nc3ncccn23)n1` (single isomer, unassigned) [Example 26, (3-Chloro-6-methoxypyridin-2-yl)(5-{[2-(4-isopropylphenyl)imidazo[1,2-a]pyrimidin-3-yl]methyl}-2,5-diazabicyclo[2.2.2]oct-2-yl)methanone], the IC50 against human TASK-1 [1] is 0.0312 ± 0.0058 µM; at human TASK-3 [2], 0.14 ± 0.0346 µM; on human TASK-1 [3] it was 1.4 µM; at human TASK-3 [4] it was 0.016 µM.

For the compound `CC(C)c1ccc(-c2nc3ncccn3c2CN2CC3CCC2CN3C(=O)c2ncoc2C2CC2)cc1` (single isomer, unassigned) [Example 27, (5-Cyclopropyl-1,3-oxazol-4-yl)(5-{[2-(4-isopropylphenyl)imidazo[1,2-a]pyrimidin-3-yl]methyl}-2,5-diazabicyclo[2.2.2]oct-2-yl)methanone], the IC50 against human TASK-1 [1] was 0.0179 ± 0.0022 µM; against human TASK-3 [2], 0.367 ± 0.0676 µM; on human TASK-1 [3] it was 1.2 µM; at human TASK-3 [4], 0.01 µM.

For the compound `CC(C)N(C(=O)N1C2CCC1CN(Cc1c(-c3ccc(Cl)cc3)nc3ncccn13)C2)c1ccc(Cl)cc1` [Example 118, N-(4-chlorophenyl)-3-{[2-(4-chlorophenyl)imidazo[1,2-a]pyrimidin-3-yl]methyl}-N-isopropyl-3,8-diazabicyclo[3.2.1]octane-8-carboxamide], the IC50 at human TASK-1 [3] turned out to be 19 µM; at human TASK-3 [4], 0.22 µM.

Turning to `CN(C)C(=O)N1C2CCC1CN(Cc1c(-c3ccc(Cl)cc3)nc3ncccn13)C2` [Example 119, 3-{[2-(4-chlorophenyl)imidazo[1,2-a]pyrimidin-3-yl]methyl}-N,N-dimethyl-3,8-diazabicyclo[3.2.1]octane-8-carboxamide], the figures for the IC50 on human TASK-1 [3] and at human TASK-3 [4] were 5.3 µM and 0.21 µM, respectively.

In the case of `CCOc1ccc(N(C)C(=O)N2C3CCC2CN(Cc2c(-c4ccc(Cl)cc4)nc4ncccn24)C3)cc1` [Example 120, 3-{[2-(4-chlorophenyl)imidazo[1,2-a]pyrimidin-3-yl]methyl}-N-(4-ethoxyphenyl)-N-methyl-3,8-diazabicyclo[3.2.1]octane-8-carboxamide], the IC50 on human TASK-1 [3] was found to be 15 µM; at human TASK-3 [4], 0.23 µM.

Regarding `COc1cccc(CN(C)C(=O)N2C3CCC2CN(Cc2c(-c4ccc(Cl)cc4)nc4ncccn24)C3)c1` [Example 121, 3-{[2-(4-chlorophenyl)imidazo[1,2-a]pyrimidin-3-yl]methyl}-N-(3-methoxybenzyl)-N-methyl-3,8-diazabicyclo[3.2.1]octane-8-carboxamide], the IC50 on human TASK-1 [3] came to 12 µM; at human TASK-3 [4], 0.12 µM.

`O=C(N1CCSCC1)N1C2CCC1CN(Cc1c(-c3ccc(Cl)cc3)nc3ncccn13)C2` [Example 122, (3-{[2-(4-Chlorophenyl)imidazo[1,2-a]pyrimidin-3-yl]methyl}-3,8-diazabicyclo[3.2.1]oct-8-yl)(thiomorpholin-4-yl)methanone]: the IC50 on human TASK-1 [3] was 5 µM; at human TASK-3 [4] it was 0.12 µM.

With `COC(=O)N1C2CCC1CN(Cc1c(-c3ccc(Cl)cc3)nc3ncccn13)C2` [Example 123, methyl 3-{[2-(4-chlorophenyl)imidazo[1,2-a]pyrimidin-3-yl]methyl}-3,8-diazabicyclo[3.2.1]octane-8-carboxylate], the IC50 at human TASK-1 [3] came to 14 µM; on human TASK-3 [4], 0.23 µM.

As for `CCOC(=O)N1C2CCC1CN(Cc1c(-c3ccc(Cl)cc3)nc3ncccn13)C2` [Example 124, ethyl 3-{[2-(4-chlorophenyl)imidazo[1,2-a]pyrimidin-3-yl]methyl}-3,8-diazabicyclo[3.2.1]octane-8-carboxylate], the IC50 turned out to be 0.79 µM on human TASK-1 [3] and 0.017 µM at human TASK-3 [4].

Take `O=C(OC1CCCC1)N1C2CCC1CN(Cc1c(-c3ccc(Cl)cc3)nc3ncccn13)C2` [Example 125, cyclopentyl 3-{[2-(4-chlorophenyl)imidazo[1,2-a]pyrimidin-3-yl]methyl}-3,8-diazabicyclo[3.2.1]octane-8-carboxylate]: the IC50 at human TASK-1 [3] amounted to 0.23 µM; on human TASK-3 [4] it was 0.027 µM.

As to `CCCOC(=O)N1C2CCC1CN(Cc1c(-c3ccc(Cl)cc3)nc3ncccn13)C2` [Example 126, propyl 3-{[2-(4-chlorophenyl)imidazo[1,2-a]pyrimidin-3-yl]methyl}-3,8-diazabicyclo[3.2.1]octane-8-carboxylate], the IC50 amounted to 0.28 µM at human TASK-1 [3] and 0.014 µM on human TASK-3 [4].

With `O=C(OC1CCCCC1)N1C2CCC1CN(Cc1c(-c3ccc(Cl)cc3)nc3ncccn13)C2` [Example 128, cyclohexyl 3-{[2-(4-chlorophenyl)imidazo[1,2-a]pyrimidin-3-yl]methyl}-3,8-diazabicyclo[3.2.1]octane-8-carboxylate], the IC50 was 2 µM at human TASK-1 [3] and 0.11 µM at human TASK-3 [4].

Take `CC(C)c1ccc(-c2nc3ncccn3c2CN2CC3CCC(C2)N3C(=O)OC(C)(C)C)cc1` [Example 130, tert-Butyl 3-{[2-(4-isopropylphenyl)imidazo[1,2-a]pyrimidin-3-yl]methyl}-3,8-diazabicyclo[3.2.1]octane-8-carboxylate]: the IC50 was determined as 1.7 µM at human TASK-1 [3] and 0.21 µM at human TASK-3 [4].

As to `CC(C)c1ccc(-c2nc3ncccn3c2CN2CC3CCC(C2)N3C(=O)c2ncoc2C2CC2)cc1` [Example 131, (5-Cyclopropyl-1,3-oxazol-4-yl)(3-{[2-(4-isopropylphenyl)imidazo[1,2-a]pyrimidin-3-yl]methyl}-3,8-diazabicyclo[3.2.1]oct-8-yl)methanone], the IC50 was found to be 3.5 µM at human TASK-1 [3] and 0.41 µM at human TASK-3 [4].

On to `CC(C)(C)OC(=O)N1C2CCC1CN(Cc1c(-c3ccc(C4CC4)cc3)nc3ncccn13)C2` [Example 132, tert-Butyl 3-{[2-(4-cyclopropylphenyl)imidazo[1,2-a]pyrimidin-3-yl]methyl}-3,8-diazabicyclo[3.2.1]octane-8-carboxylate], for which the IC50 on human TASK-1 [3] stood at 1.7 µM; at human TASK-3 [4], 0.41 µM.

With `O=C(c1ccccc1F)N1C2CCC1CN(Cc1c(-c3ccc(C4CC4)cc3)nc3ncccn13)C2` [Example 133, (3-{[2-(4-cyclopropylphenyl)imidazo[1,2-a]pyrimidin-3-yl]methyl}-3,8-diazabicyclo[3.2.1]octan-8-yl)(2-fluorophenyl)methanone], the results for the IC50 on human TASK-1 [3] and at human TASK-3 [4] were 1.6 µM and 0.18 µM, respectively.

As to `O=C(C1CCCC1)N1C2CCC1CN(Cc1c(-c3ccc(C4CC4)cc3)nc3ncccn13)C2` [Example 134, cyclopentyl(3-{[2-(4-cyclopropylphenyl)imidazo[1,2-a]pyrimidin-3-yl]methyl}-3,8-diazabicyclo[3.2.1]octan-8-yl)methanone], the IC50 at human TASK-1 [3] came out at 0.77 µM; at human TASK-3 [4], 0.097 µM.

On to `COc1ccc(F)c(C(=O)N2C3CCC2CN(Cc2c(-c4ccc(C5CC5)cc4)nc4ncccn24)C3)n1` [Example 135, (3-{[2-(4-cyclopropylphenyl)imidazo[1,2a]pyrimidin-3-yl]methyl}-3,8-diazabicyclo[3.2.1]octan-8-yl)(3-fluoro-6methoxypyridin-2-yl)methanone], for which the values for the IC50 at human TASK-1 [3] and at human TASK-3 [4] were 0.42 µM and 0.034 µM, respectively.

With `COc1ccc(Cl)c(C(=O)N2C3CCC2CN(Cc2c(-c4ccc(C5CC5)cc4)nc4ncccn24)C3)n1` [Example 136, (3-chloro-6-methoxypyridin-2-yl)(3-{[2-(4-cyclopropylphenyl)imidazo[1,2-a]pyrimidin-3-yl]methyl}-3,8-diazabicyclo[3.2.1]octan-8-yl)methanone], the IC50 on human TASK-1 [3] amounted to 0.32 µM; at human TASK-3 [4], 0.041 µM.

For `COc1cccc(C(=O)N2C3CCC2CN(Cc2c(-c4ccc(C5CC5)cc4)nc4ncccn24)C3)n1` [Example 137, (3-{[2-(4-cyclopropylphenyl)imidazo[1,2-a]pyrimidin-3-yl]methyl}-3,8-diazabicyclo[3.2.1]octan-8-yl)(6-methoxypyridin-2-yl)methanone], the IC50 at human TASK-1 [3] turned out to be 1.1 µM; at human TASK-3 [4] it was 0.18 µM.

In the case of `O=C(c1cccc(OC(F)F)n1)N1C2CCC1CN(Cc1c(-c3ccc(C4CC4)cc3)nc3ncccn13)C2` [Example 138, (3-{[2-(4-cyclopropylphenyl)imidazo[1,2-a]pyrimidin-3-yl]methyl}-3,8-diazabicyclo[3.2.1]octan-8-yl)[6-(difluoromethoxy)pyridin-2-yl]methanone], the values for the IC50 at human TASK-1 [3] and at human TASK-3 [4] were 3.2 µM and 0.29 µM, respectively.

In the case of `O=C(c1ncoc1C1CC1)N1C2CCC1CN(Cc1c(-c3ccc(C4CC4)cc3)nc3ncccn13)C2` [Example 139, (5-cyclopropyl-1,3-oxazol-4-yl)(3-{[2-(4-cyclopropylphenyl)imidazo[1,2-a]pyrimidin-3-yl]methyl}-3,8-diazabicyclo[3.2.1]octan-8-yl)methanone], the IC50 on human TASK-1 [3] worked out at 4.5 µM; at human TASK-3 [4], 0.47 µM.
